Reference: article PMC10041525, “New Dual Inhibitors of Bacterial Topoisomerases with Broad-Spectrum Antibacterial Activity and In Vivo Efficacy against Vancomycin-Intermediate Staphylococcus aureus” (Journal of Medicinal Chemistry, 2023)
Values after ≈ are worked out from the molar mass of the structure shown. Where two headings read alike, the source gives them in different places.

Experiments:
[1] = tested on: 100 A. baumannii strains (50 MDR, 50 non-MDR); assay: MIC broth microdilution at IHMA Europe, panel of 100 strains; assay type: cell-based; settings: for MIC / MIC50 / MIC90: Acinetobacter baumannii; for MIC50: read-out: MIC 50; for MIC90: read-out: MIC 90
P. aeruginosa ATCC 27853 = assay: IHMA QC MIC; assay type: cell-based; settings: for MIC: Pseudomonas aeruginosa
A. baumannii ATCC 17978 = assay: IHMA QC MIC; assay type: cell-based; settings: Acinetobacter baumannii, ATCC17978; read-out: MIC (QC, repeated tests)
Protocol: (§1) The panel of Hungarian clinical isolates and controls measured following the same method as detailed above, and albeit measurements were carried out in 384-well microtiter plates (Corning Inc.).

E. coli ATCC 35218 = assay: IHMA QC MIC; assay type: cell-based; settings: Escherichia coli, ATCC35218; read-out: MIC (QC, repeated tests)
Protocol: as §1

E. coli ATCC 25922 [2] = assay: IHMA QC MIC; assay type: cell-based; settings: Escherichia coli
E. faecalis ATCC 29212 = assay: IHMA QC MIC; assay type: cell-based
From the text: (§2) Supplement jm2c01905_si_004.xlsx, sheet "QC" | column: MIC [µg/mL]

H. influenzae ATCC 49247 = assay: IHMA QC MIC; assay type: cell-based; settings: Haemophilus influenzae, read-out: MIC
From the text: as §2

H. influenzae ATCC 49766 = assay: IHMA QC MIC; assay type: cell-based
From the text: as §2

S. pneumoniae ATCC 49619 = assay: IHMA QC MIC; assay type: cell-based
From the text: as §2

E. coli ATCC 25922 [3] = tested on: E. coli ATCC 25922; parameters: method as in earlier work; settings: QC range for E. coli ATCC 25922, ref CLSI; cited from earlier work

## C[C@@H](O)[C@H]1C(=O)N2C(C(=O)O)=C(SCCNC=N)C[C@H]12 [Imipenem, imipenem]
[1]; A. baumannii IHMA 2183849, Argentina 2020, Non-MDR, read-out: MIC
  MIC: ≤ 0.25 µg/mL
[1]; A. baumannii IHMA 2184382, Japan 2020, Non-MDR, read-out: MIC
  MIC: ≤ 0.25 µg/mL
[1]; A. baumannii IHMA 2193375, Venezuela 2020, MDR, read-out: MIC
  MIC: > 16 µg/mL
[1]; A. baumannii IHMA 2193485, Venezuela 2020, Non-MDR, read-out: MIC
  MIC: ≤ 0.25 µg/mL
[1]; A. baumannii IHMA 2193607, Venezuela 2020, MDR, read-out: MIC
  MIC: > 16 µg/mL
[1]; A. baumannii IHMA 2195460, Italy 2020, MDR, read-out: MIC
  MIC: > 16 µg/mL
[1]; A. baumannii IHMA 2196914, South Africa 2020, MDR, read-out: MIC
  MIC: > 16 µg/mL
[1]; A. baumannii IHMA 2196959, South Africa 2020, MDR, read-out: MIC
  MIC: > 16 µg/mL
[1]; A. baumannii IHMA 2203763, Spain 2020, MDR, read-out: MIC
  MIC: > 16 µg/mL
[1]; A. baumannii IHMA 2205144, Korea, South 2020, MDR, read-out: MIC
  MIC: > 16 µg/mL
[1]; A. baumannii IHMA 2206459, Taiwan 2020, MDR, read-out: MIC
  MIC: > 16 µg/mL
[1]; A. baumannii IHMA 2206507, Taiwan 2020, Non-MDR, read-out: MIC
  MIC: ≤ 0.25 µg/mL
[1]; A. baumannii IHMA 2212575, Hungary 2020, Non-MDR, read-out: MIC
  MIC: ≤ 0.25 µg/mL
[1]; A. baumannii IHMA 2215307, Hong Kong 2020, Non-MDR, read-out: MIC
  MIC: ≤ 0.25 µg/mL
[1]; A. baumannii IHMA 2216586, Taiwan 2020, MDR, read-out: MIC
  MIC: > 16 µg/mL
[1]; A. baumannii IHMA 2223200, Colombia 2020, Non-MDR, read-out: MIC
  MIC: ≤ 0.25 µg/mL
[1]; A. baumannii IHMA 2224017, Panama 2020, MDR, read-out: MIC
  MIC: > 16 µg/mL
[1]; A. baumannii IHMA 2224303, Panama 2020, Non-MDR, read-out: MIC
  MIC: ≤ 0.25 µg/mL
[1]; A. baumannii IHMA 2231797, Greece 2020, MDR, read-out: MIC
  MIC: > 16 µg/mL
[1]; A. baumannii IHMA 2233099, Guatemala 2020, MDR, read-out: MIC
  MIC: > 16 µg/mL
[1]; A. baumannii IHMA 2233430, Kazakhstan 2020, MDR, read-out: MIC
  MIC: > 16 µg/mL
[1]; A. baumannii IHMA 2233548, Kazakhstan 2020, Non-MDR, read-out: MIC
  MIC: ≤ 0.25 µg/mL
[1]; A. baumannii IHMA 2238964, Thailand 2020, MDR, read-out: MIC
  MIC: > 16 µg/mL
[1]; A. baumannii IHMA 2239052, Thailand 2020, Non-MDR, read-out: MIC
  MIC: ≤ 0.25 µg/mL
[1]; A. baumannii IHMA 2261047, Belgium 2020, MDR, read-out: MIC
  MIC: > 16 µg/mL
[1]; A. baumannii IHMA 2261633, Canada 2020, Non-MDR, read-out: MIC
  MIC: ≤ 0.25 µg/mL
[1]; A. baumannii IHMA 2274234, South Africa 2020, MDR, read-out: MIC
  MIC: > 16 µg/mL
[1]; A. baumannii IHMA 2274364, South Africa 2020, MDR, read-out: MIC
  MIC: > 16 µg/mL
[1]; A. baumannii IHMA 2275237, Chile 2020, Non-MDR, read-out: MIC
  MIC: ≤ 0.25 µg/mL
[1]; A. baumannii IHMA 2275751, Jordan 2020, MDR, read-out: MIC
  MIC: > 16 µg/mL
[1]; A. baumannii IHMA 2316205, United States 2020, MDR, read-out: MIC
  MIC: > 16 µg/mL
[1]; MDR n = 50, read-out: MAX (maximum MIC; all strains inhibited)
  MIC: > 16 µg/mL
[1]; MDR n = 50
  MIC50: > 16 µg/mL
  MIC90: > 16 µg/mL
  Percentage I: 0%
  Percentage R: 100%
  Percentage S: 0%
[1]; MDR n = 50, read-out: MIN (minimum MIC)
  MIC: 16 µg/mL (≈ 53.4 µM)
[1]; all isolates n = 100, read-out: MAX (maximum MIC; all strains inhibited)
  MIC: > 16 µg/mL
[1]; all isolates n = 100
  MIC50: 0.5 µg/mL (≈ 1.67 µM)
  MIC90: > 16 µg/mL
[1]; all isolates n = 100, read-out: MIN (minimum MIC)
  MIC: ≤ 0.25 µg/mL
[1]; non-MDR n = 50, read-out: MAX (maximum MIC)
  MIC: 0.5 µg/mL (≈ 1.67 µM)
[1]; non-MDR n = 50
  MIC50: ≤ 0.25 µg/mL
  MIC90: ≤ 0.25 µg/mL
  Percentage I: 0%
  Percentage R: 0%
  Percentage S: 100%
[1]; non-MDR n = 50, read-out: MIN (minimum MIC)
  MIC: ≤ 0.25 µg/mL
[1]; all n = 100, CLSI breakpoints
  Percentage I: 0%
  Percentage R: 50%
  Percentage S: 50%
P. aeruginosa ATCC 27853
  MIC (QC, repeated tests): 1 µg/mL (≈ 3.34 µM)
P. aeruginosa ATCC 27853; ATCC27853, QC strain P. aeruginosa ATCC 27853, test date 2021-11-11, read-out: MIC
  MIC: 2 µg/mL (≈ 6.68 µM)
P. aeruginosa ATCC 27853; ATCC27853, QC strain P. aeruginosa ATCC 27853, test date 2021-11-26, read-out: MIC
  MIC: 2 µg/mL (≈ 6.68 µM)
P. aeruginosa ATCC 27853; ATCC27853, read-out: MIC (QC, repeated tests)
  MIC: 2 µg/mL (≈ 6.68 µM)
A. baumannii ATCC 17978
  MIC: ≤ 0.25 µg/mL
E. coli ATCC 35218
  MIC: ≤ 0.25 µg/mL
E. coli ATCC 25922 [2]; ATCC25922, QC strain E. coli ATCC 25922, test date 2021-11-26, read-out: MIC
  MIC: 0.12 µg/mL (≈ 0.401 µM)
E. coli ATCC 25922 [2]; ATCC25922, read-out: MIC (QC, repeated tests)
  MIC: ≤ 0.25 µg/mL
E. faecalis ATCC 29212; Enterococcus faecalis, ATCC29212, QC strain E. faecalis ATCC 29212, test date 2021-11-11, read-out: MIC
  MIC: 1 µg/mL (≈ 3.34 µM)
E. faecalis ATCC 29212; QC strain E. faecalis ATCC 29212, test date 2021-11-26
  MIC: 1 µg/mL (≈ 3.34 µM)
H. influenzae ATCC 49247; ATCC49247, QC strain H. influenzae ATCC 49247, test date 2021-11-11
  MIC: 0.25 µg/mL (≈ 0.835 µM)
H. influenzae ATCC 49247; ATCC49247, QC strain H. influenzae ATCC 49247, test date 2021-11-26
  MIC: 0.12 µg/mL (≈ 0.401 µM)
H. influenzae ATCC 49766; Haemophilus influenzae, ATCC49766, QC strain H. influenzae ATCC 49766, test date 2021-11-11, read-out: MIC
  MIC: 0.5 µg/mL (≈ 1.67 µM)
H. influenzae ATCC 49766; QC strain H. influenzae ATCC 49766, test date 2021-11-26
  MIC: 0.5 µg/mL (≈ 1.67 µM)
S. pneumoniae ATCC 49619; QC strain S. pneumoniae ATCC 49619, test date 2021-11-26
  MIC: 0.03 µg/mL (≈ 0.1 µM)
S. pneumoniae ATCC 49619; Streptococcus pneumoniae, ATCC49619, QC strain S. pneumoniae ATCC 49619, test date 2021-11-11, read-out: MIC
  MIC: 0.03 µg/mL (≈ 0.1 µM)
E. coli ATCC 25922 [3]
  MIC, CLSI Range: 0,06 - 0,25 µg/mL
